The values that follow come from patent US20220273679A1, “METHODS AND COMPOSITIONS FOR TREATING AND PREVENTING DAMAGE TO SKIN” (New York Society for the Relief of the Ruptured and …, priority 2019, published 2022).

Assay [1] deals with Primary murine keratinocytes. The experiment in a line: Mouse keratinocyte-LC co-culture exposed to UVR (activated caspase-3+ keratinocytes). The assay is classed as cell-based. The following applies: keratinocytes pre-treated with 2 μM for 30 minutes before LC co-culture and UVR. On the procedure:
FIGS. 13A and 13B. Effect of human LCs on human keratinocytes without UVR and further characterization of in vitro LC-keratinocyte EGFR signaling (13A) Effect of human LCs on human keratinocytes without UVR. Primary human keratinocytes were co-cultured with or without human LCs and activated caspase-3+ keratinocytes were enumerated 24 hours later (n=3 human LC donors). Validation of siRNA-mediated EGFR knockdown in primary murine keratinocytes was performed. Keratinocytes were treated with control or EGFR-targeted siRNAs (#1 and #2) and EGFR expression was measured 5 days later (on the day of UVR exposure) by flow cytometry. […]
For immunofluorescence staining of cell culture experiments, polystyrene chamber slides (Lab-Tek) with cultured keratinocytes were washed with PBS, fixed with 4% paraformaldehyde for 20 minutes, permeabilized and blocked with Triton-X (0.2%) and BSA (1%), and stained as indicated. Activated caspase-3+ and total DAPI+ cells were quantified with ImageJ software by a blinded observer and the percent of activated caspase-3+ Langerin− cells (keratinocytes) and activated caspase-3+ Langerin+ cells (LCs) was calculated.
Primary mouse keratinocyte cultures were prepared from mouse tail skin as described (23). […] The co-cultures rested overnight and were then exposed to UVR and analyzed 24 hours later. […]

The subject of another assay is WT mice. The experiment in a line: UVR-induced keratinocyte apoptosis and skin injury in WT mice treated topically before UVR. The assay is classed as in vivo, mouse. The following applies: 4 mM topically prior to UVR, FIGS. 12B-12E.
Assay [2] concerns ADAM17. The experiment in a line: Ex vivo ADAM17 activity assay by TNFR1 cleavage, sorted murine LCs. The assay is classed as cell-based, mouse. The following applies: 25 ng/mL, 45 minutes. Here is the method: FIGS. 6A-6D. UVR directly activates LC ADAM17 and EGFR ligand release. (6A, 6B) Effect of UVR on ADAM17 activity in sorted murine (6A) and human (6B) LCs as measured by change in TNFR1 mean fluorescence intensity (MFI) 45 minutes after the indicated treatments. PMA is a positive control. (n=5-6 mice; n=4 human donors). (6C,6D) Conditioned supernatants from murine (6C) or human LCs (6D) were added to A431 EGFR indicator cells and phosphoEGFR was measured 10 minutes later by flow cytometry. Murine LC supernatants were from (6A); human LC supernatants were from cells treated similarly to (6B), except that antibody was washed out prior to UVR (see Example 8). Left: Representative histogram. Right: Quantification relative to cells treated with control WT LC supernatants (6C) or control IgG-treated LC supernatants (6D). […]
To measure ADAM17 activity, we quantified the level of cell-surface tumor necrosis factor receptor 1 (TNFR1), a substrate for ADAM17 (31). […]
Sorted mouse LCs were plated in a 96-well plate at 20,000-25,000 cells/well in RPMI 1640 supplemented with L-glutamine, penicillin/streptomycin, and HEPES buffer. The cells were treated with phorbol 12-myristate 13-acetate (PMA) (Sigma-Aldrich) at 25 ng/mL or UVR (500 J/m2) and analyzed 45 minutes later. […] ADAM17 activity is expressed as the percent change in TNFR1 mean fluorescence intensity (MFI) relative to that of untreated LCs. […]

The test system of assay [3] is ADAM17. The following applies: mouse embryonic fibroblasts; cited from earlier work.
A further assay has as its system epithelial wound healing. The following applies: used at 0.1 μg/ml; cited from earlier work.

As for `C=CC(=O)Nc1ccc2ncnc(Nc3cccc(Br)c3)c2c1` [PD168393], the “protective effect of LCs against UVR-induced keratinocyte apoptosis” value in assay [1] was “abolished the protective effect of LCs”. Moreover, the “UVR-induced keratinocyte apoptosis and skin injury” value with WT mice is listed as “increased”. In the case of `CCCCCCCCCCCCCC(=O)O[C@@H]1[C@@H](C)[C@@]2(O)[C@@H](C=C(CO)C[C@]3(O)C(=O)C(C)=C[C@@H]23)[C@@H]2C(C)(C)[C@]12OC(C)=O` [PMA, phorbol 12-myristate 13-acetate], the “LC cell-surface TNFR1 (ADAM17 activity)” value with ADAM17 [2] is reported as “reduced”. With “Lysophosphatidic acid [LPA, reference compound]”, the ADAM17 activation entry in the assay on ADAM17 [3] is listed as “activated”.

For the compound TGFα: EGFR ligand, in the assay with epithelial wound healing, the epithelial wound healing result is reported as “enhance”. On to TNFα, for which the ADAM17 activation result in the assay on ADAM17 [3] is on record as “activated”.

As for Thrombin, in the assay with ADAM17 [3], the ADAM17 activation result is reported as “activated”.
